Results taken from ChEMBL document CHEMBL2021840 (Eur J Med Chem, 2012).

Biological target: T1, Estrogen receptor beta (Homo sapiens, UniProt Q92731)
Assay: Displacement of [3H]-17beta-estradiol from ERbeta
Conditions: not given; call rule not given here

T1 sequence (Q92731 whole entry): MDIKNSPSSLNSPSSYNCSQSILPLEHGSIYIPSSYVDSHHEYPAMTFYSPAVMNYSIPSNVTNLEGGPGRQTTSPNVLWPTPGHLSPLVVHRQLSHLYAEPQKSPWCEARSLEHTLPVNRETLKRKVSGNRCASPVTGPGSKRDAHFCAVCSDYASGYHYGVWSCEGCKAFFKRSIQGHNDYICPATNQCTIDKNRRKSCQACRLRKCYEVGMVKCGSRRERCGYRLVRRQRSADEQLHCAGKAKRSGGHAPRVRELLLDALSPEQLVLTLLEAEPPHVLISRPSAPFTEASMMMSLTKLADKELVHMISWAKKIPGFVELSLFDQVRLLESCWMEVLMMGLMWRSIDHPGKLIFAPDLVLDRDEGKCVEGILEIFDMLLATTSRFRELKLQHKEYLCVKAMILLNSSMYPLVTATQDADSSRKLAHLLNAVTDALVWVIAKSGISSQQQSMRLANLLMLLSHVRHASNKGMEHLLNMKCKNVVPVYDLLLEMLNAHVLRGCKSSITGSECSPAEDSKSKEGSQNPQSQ

| IC50 [nM] | Structure (SMILES) |
| --- | --- |
| 9.07 | O=C(c1ccc(N2CCN(C(=O)c3ccc(Cl)cc3)CC2)cc1)c1c(-c2ccc(O)cc2)sc2cc(O)ccc12 |

Tested on: MCF7
Assay: Antiproliferative activity against human MCF7 cells after 7 days
Assay type: functional, cell-based
Conditions: MCF7, 168 h

| Structure (SMILES) | IC50 [nM] |
| --- | --- |
| C[C@H](COc1ccc(C(=O)c2c(-c3ccc(O)cc3)sc3cc(O)ccc23)cc1)N1CCCC1 | 0.2 |
| C[C@H]1CCN(CCOc2ccc(C(=O)c3c(-c4ccc(O)cc4)sc4cc(O)ccc34)cc2)C1 | 1 |

Tested on: MCF7
Assay: Antiproliferative activity against human MCF7 cells
Assay type: functional, cell-based
Conditions: Homo sapiens, MCF7; read-out: IC50

| IC50 [nM] | Structure (SMILES) |
| --- | --- |
| 0.5 | O=C(c1ccc(OCCN2CCCCC2)cc1)c1c2ccc(O)cc2sc1[C@H]1CC[C@H](O)CC1 |
| 600 | Cc1sc2cc(O)ccc2c1Cc1ccc(OCCN2CCCCC2)cc1 |
| 300 | O=C(c1ccc(OCCN2CCCCC2)cc1)c1c(-c2ccccc2)sc2ccccc12 |
| 1000 | COc1ccc(-c2sc3cc(O)ccc3c2C(=O)c2ccc(OCCN3CCCCC3)cc2)cc1 |
| 2 | Oc1ccc2c(Cc3ccc(OCCN4CCCCC4)cc3)c([C@H]3CC[C@H](O)CC3)sc2c1 |
| 10 | Oc1ccc2c(Cc3ccc(OCCN4CCCCC4)cc3)c(C3CCCCC3)sc2c1 |
| 400 | CCc1sc2cc(O)ccc2c1Cc1ccc(OCCN2CCCCC2)cc1 |
| 500 | Cc1cc2c(C(=O)c3ccc(OCCN4CCCCC4)cc3)c(-c3ccc(O)cc3)sc2c(C)c1O |
| 3 | O=C(c1ccc(OCCN2CCCCC2)cc1)c1c(-c2ccc(O)cc2)sc2cc(O)c(F)cc12 |
| 250 | COc1ccc2c(C(=O)c3ccc(OCCN4CCCCC4)cc3)c(-c3ccc(O)cc3)sc2c1 |
| 35 | O=C(c1ccc(OCCN2CCCCC2)cc1)c1c(-c2ccc(O)cc2)sc2ccccc12 |
| 0.3 | O=C(c1ccc(OCCN2CCCCC2)cc1)c1c(-c2ccc(O)c(F)c2)sc2cc(O)ccc12 |
| 10 | Oc1ccc2c(Cc3ccc(OCCN4CCCCC4)cc3)c(C3CCCC3)sc2c1 |
| 1 | Cc1cc(-c2sc3cc(O)ccc3c2C(=O)c2ccc(OCCN3CCCCC3)cc2)ccc1O |
| 100 | CC(C)c1sc2cc(O)ccc2c1Cc1ccc(OCCN2CCCCC2)cc1 |
| 2.3 | O=C(c1ccc(OCCN2CCCCC2)cc1)c1c(-c2ccc(O)c(Cl)c2)sc2cc(O)ccc12 |
| 400 | O=C(c1ccc(OCCN2CCCCC2)cc1)c1c(-c2ccc(O)cc2)sc2cc(O)c(O)cc12 |
| 300 | COc1ccc(-c2sc3cc(OC)ccc3c2C(=O)c2ccc(OCCN3CCCCC3)cc2)cc1 |
| 100 | COc1ccc2c(C(=O)c3ccc(OCCN4CCCCC4)cc3)c([C@H]3CC[C@@H](O)CC3)sc2c1 |
| 100 | Cc1cc(-c2sc3cc(O)ccc3c2C(=O)c2ccc(OCCN3CCCCC3)cc2)cc(C)c1O |

Same assay, conditions: mcf7

| Structure (SMILES) | IC50 |
| --- | --- |
| C[C@]12CC[C@@H]3c4ccc(O)cc4CC[C@H]3[C@@H]1CC[C@@H]2O [ESTRADIOL] | Not Active |

Tested on: not listed separately
Assay: Selectivity ratio of IC50 for ERbeta to IC50 for ERalpha
Conditions: not given

| Ratio IC50 | Structure (SMILES) |
| --- | --- |
| 41 | O=C(c1ccc(N2CCN(C(=O)c3ccc(Cl)cc3)CC2)cc1)c1c(-c2ccc(O)cc2)sc2cc(O)ccc12 |
| 46.2 | Cc1cccc(C(=O)N2CCN(c3ccc(C(=O)c4c(-c5ccc(O)cc5)sc5cc(O)ccc45)cc3)CC2)c1 |
| 121 | CC(C)N1CCN(c2ccc(C(=O)c3c(-c4ccc(O)cc4)sc4cc(O)ccc34)cc2)CC1 |

Biological target: T2, Estrogen receptor (Homo sapiens, UniProt P03372)
T2 sequence (P03372 whole entry): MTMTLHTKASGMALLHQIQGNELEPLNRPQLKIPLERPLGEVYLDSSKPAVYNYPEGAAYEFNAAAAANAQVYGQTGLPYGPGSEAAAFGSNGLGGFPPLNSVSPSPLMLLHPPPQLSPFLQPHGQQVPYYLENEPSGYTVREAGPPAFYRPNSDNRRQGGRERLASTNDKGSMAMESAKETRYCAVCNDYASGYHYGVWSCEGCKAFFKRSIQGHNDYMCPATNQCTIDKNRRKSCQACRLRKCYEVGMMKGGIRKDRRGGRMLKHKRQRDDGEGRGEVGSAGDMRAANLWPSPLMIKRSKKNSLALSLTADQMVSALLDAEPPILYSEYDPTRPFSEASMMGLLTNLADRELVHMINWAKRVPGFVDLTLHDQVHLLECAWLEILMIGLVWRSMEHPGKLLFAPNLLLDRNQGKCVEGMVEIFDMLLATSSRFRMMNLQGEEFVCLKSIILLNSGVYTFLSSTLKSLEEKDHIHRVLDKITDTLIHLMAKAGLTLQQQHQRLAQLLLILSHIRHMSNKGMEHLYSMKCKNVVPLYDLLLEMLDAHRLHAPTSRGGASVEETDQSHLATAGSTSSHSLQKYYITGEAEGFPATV
Assay: Displacement of [3H]-17beta-estradiol from ERalpha
Conditions: not given

| IC50 [nM] | Structure (SMILES) |
| --- | --- |
| 0.22 | O=C(c1ccc(N2CCN(C(=O)c3ccc(Cl)cc3)CC2)cc1)c1c(-c2ccc(O)cc2)sc2cc(O)ccc12 |

Biological target: T1, Estrogen receptor beta
Assay: Relative binding affinity to human ERbeta
Conditions: not given

| relative binding affinity (RBA) | Structure (SMILES) |
| --- | --- |
| 27 | O=C(c1ccc(OCCN2CCCCC2)cc1)c1c(-c2ccccc2CCF)sc2cc(O)ccc12 |
| 24 | O=C(c1ccc(OCCN2CCCCC2)cc1)c1c(-c2ccc(O)cc2CCCF)sc2cc(O)ccc12 |
| 30 | O=C(c1ccc(OCCN2CCCCC2)cc1)c1c(-c2ccccc2CCCF)sc2cc(O)ccc12 |

| Structure (SMILES) | relative binding affinity (RBA) |
| --- | --- |
| C[C@]12CC[C@@H]3c4ccc(O)cc4CC[C@H]3[C@@H]1CC[C@@H]2O [ESTRADIOL] | 3.5 |
